According to US20230002449A1, “DERIVED PEPTIDE OF LACTOFERRIN AND METHOD THEREOF FOR PROMOTING AND/OR INCREASING LIPID SYNTHESIS” (RENORIGIN INNOVATION INSTITUTE CO., LTD., priority 2021, published 2023):

System: Human sebocytes
Test: Neutral fat detection (Nile red staining, fluorescence intensity) in human sebocytes
Format: cell-based
Experimental: Human sebocytes (Cat. No. 36079-01, Celprogen, Torrance, Calif., USA) were cultured in Dulbecco's Modified Eagle Medium (DMEM): Nutrient Mixture F-12 (DMEM/F12) purchased from Thermo Fisher Scientific Limited (Barrington, Ill., USA), 10% fetal bovine serum (FBS) purchased from Gibco, Grand Island, N.Y., USA and penicillin/streptomycin (100 IU/50 […]), incubated at 37° C. in the 5% CO2 atmosphere.
Human sebocytes were implanted in 24- or 96-well plates. After 24 hours of culture, the cells were divided into a negative control group, a positive control group and an experimental group. […] The treated human sebocytes were cultured for two days. Human sebocytes were fixed with 4% formaldehyde at room temperature. After 60 minutes of fixation, the cells were washed with PBS and stain with Nile Red solution (1 μg/ml in PBS) at 37° C. for 15 minutes. Next, the cells were washed and observed under a fluorescent microscope. Fluorescence intensity was measured with fluorometer Spectra Max i3.

[1] = 0.1 mM LA + 50 μg/mL peptide vs LA alone, FIG. 1E

Molecule | fluorescence intensity (lipid content of sebocytes, Nile red) (50 μg/mL peptide, negative control about 1.0, FIG. 2E) | fluorescence intensity (lipid content of sebocytes, Nile red) (100 μg/mL peptide, negative control about 1.0, FIG. 2E) | fluorescence intensity (lipid content of sebocytes, Nile red) (0.1 mM LA + 50 μg/mL lactoferrin peptide, negative control about 1, positive control (LA) about 3.44, FIG. 1E) | lipid content increase compared with the positive control group (LA) [1] | promoting and/or increasing the content of lipid synthesized by the induction of LA (significance vs positive control) [1] | fluorescence intensity (lipid content of sebocytes, Nile red) (400 μg/mL peptide (so in the source), negative control about 1.0, FIG. 2E) | concentration dependence of the lipid content increase (50, 100, 200 μg/mL peptide, FIG. 2) | lipid content compared with the negative control group (0.1 mM LA alone vs negative control, FIG. 1E) | fluorescence intensity (lipid content of sebocytes, Nile red) (0.1 mM linoleic acid (LA) alone, positive control group, negative control about 1, FIG. 1E, cultured two days)
Lf13: Lactoferrin-derived peptide purchased from DgPeptides; presumably the derived peptide comprising the amino acid sequence of SEQ ID NO: 01 (APRKNVRWCTISQ; Lactoferrin derived peptide) | about 1.29 | about 1.44 | about 4.67 | 40% | significant difference | about 1.54 | dose-dependent manner |  | 
CCCCC/C=C\C/C=C\CCCCCCCC(=O)O [LA, linoleic acid, reference compound] |  |  |  |  |  |  |  | more than 3 times | about 3.44
